# Laboratory results published in patent US20210106674A1, “Gene Therapy For Mesothelioma” (The Trustees of the University of Pennsylvania, priority 2019, published 2021).
# Marks after values point to notes of the source that are not given here.
# Columns and labels:
# [1] = system: MPM; conditions: published trial, Pem re-treat with pem; cited from earlier work
# [2] = system: MPM; assay: Recent published trials of chemotherapy in MPM (historical comparison); assay type: in vivo; conditions: average of three published trials of pemetrexed re-treatment (103 patients)
# [3] = system: serum mesothelin-related protein (SMRP); assay: ELISA of serum mesothelin-related protein (SMRP); assay type: in vivo, Human; conditions: compared to baseline
# From the text: See Supplemental Methods for details.
# [4] = system: CD8 T cells and NK cells; assay: Flow cytometry of PBMC: CD69 on CD8 T cells and NK cells; assay type: in vivo, Human
# Description: PBMCs were studied from a set of six patients who responded to therapy and 6 patients who progressed with treatment (Table 6).
# PBMC were thawed and the activation of natural killer cell (NK) and T cells was assessed using flow cytometry as detailed in the Supplemental Methods (see also Ref 19).
# All mAbs were from BD Biosciences (San Diego, Calif.) and R&D systems (Minneapolis, Minn., USA).
# Details of the cell preparation and staining have been previously published (Stevenson J P, Kindler H L, Papasavvas E, et al. Immunological effects of anti-transforming growth factor-beta (TGF-beta) antibody GC1008 in cancer patients with malignant pleural mesothelioma (MPM). Oncoimmunology 2013; 8:e26218). Analysis was done by collecting 100,000 live lymphocytes (defined by size and granularity in FSC and SSC). Dead cells were excluded by manual gating in FSC/SSC. Detection thresholds were set according to isotype-matched negative controls. Results were expressed as Mean Fluorescent Intensity (MFI) and percent (%) of lymphocytes, NK cells (Lin3-CD56dimCD16+), CD3+CD4+ or CD3+CD8+ T cells. Data analysis was performed using FloJo software (Tree Star, San Carlos, Calif.).
# Data were described as medians, 25th and 75th percentiles. Comparisons between responders (n=6) and non-responders (n=6) at each time point were done using Wilcoxon Kruskal-Wallis tests (Rank Sums). Differences between time points for all patients (n=12) were tested using Wilcoxon Signed-Rank or paired t-tests depending on data distribution, while differences between time points in responders (n=6) and in non-responders (n=6) were tested using Wilcoxon Signed-Rank. p values that were less than 0.05 were considered statistically significant. All statistics used JMP Pro11®.
# [5] = system: purified mesothelin and extracts from allogeneic mesothelioma cell lines; assay: Immunoblotting with patient serum for induced anti-tumor antibodies; assay type: in vivo, Human; design: key to Antibody Response: 0 = no change; 1 = marginal changes; 2 = significant changes
# Description: Enzyme-linked immunosorbent assays (ELISAs) were used to measure IFN-α2b levels (PBL Biomedical Labs; Piscataway, N.J.), as well as serum mesothelin-related protein (SMRP) levels (Fujirebio, Inc., Malvern, Pa.). Neutralizing adenovirus antibody titers (Nabs) were assessed as previously described (5). To detect induced humoral responses against tumor antigens, we performed immunoblotting against purified mesothelin and extracts from allogeneic mesothelioma cell lines using pre- and post-treatment serum as previously described (4-6). See Supplemental Methods for details.
# To detect induced humoral responses against tumor antigens, we performed immunoblotting against purified mesothelin and extracts from allogeneic mesothelioma cell lines. Purified mesothelin was purchased from Raybiotech (Norcross, Ga.). Cell lines were derived from patient pleural fluid samples from previous clinical trials and were grown in culture as previously described (Sterman D H, Reico A, Haas A R, et al. A phase I trial of repeated Intrapleural adenoviral-mediated interferon-beta gene transfer for mesothelioma and metastatic pleural effusion. Mol Ther 2010; 18: 852-60). Extracts from cells or purified proteins were prepared and immunoblotted with patient serum (diluted at 1:1500) from time points before treatment, and 6 weeks after treatment as previously described (Sterman et al., 2010). Multiple exposures were obtained and comparisons were made on the exposures in which the major bands detected on pre-treatment blots were of equal intensity in post-treatment blots.
# The blots were semi-quantitatively scored as follows: 0=no change in any bands; 1=minimal changes (i.e. increased intensity in one or two bands); 2=clear increases in >2 bands or appearance of new bands.
# [6] = post-treatment serum, 39 patients analysed
compound,measurement,setting,value
"Nc1nc2[nH]cc(CCc3ccc(C(=O)N[C@@H](CCC(=O)O)C(=O)O)cc3)c2c(=O)[nH]1 [pem, pemetrexed]",2 yr OS,[1],30%)
same,"Median OS, Average",[2],11.7 mo
same,"Response rate, Average",[2],18%
same,"TTP/PFS, Average",[2],5.1 mo
nadofaragene firadenovec [Ad.IFN],patients with a greater than 20% decrease in SMRP level,[3]; at some time point,15 of the 27 patients
same,patients with more than a 20% increase in SMRP level,[3],12 of the 27 patients
same,CD8 T Cells: % Positive for CD69,"[4]; Good Responders, D 2, median",26.6 (IQR: 23.2- %
same,NK Cells: % Positive for CD69,"[4]; Good Responders, D 2, median, p = 0.03 vs Baseline",66.6* (IQR: 42.1- %
same,CD8 T Cells: % Positive for CD69,"[4]; Good Responders, D 15, median",16.6 (IQR: 11.5- %
same,NK Cells: % Positive for CD69,"[4]; Good Responders, D 15, median",20.9 (IQR: 5.8- %
same,CD8 T Cells: % Positive for CD69,"[4]; Poor Responders, D 2, median",22.1 (IQR: 9.9- %
same,NK Cells: % Positive for CD69,"[4]; Poor Responders, D 2, median",33.3 (IQR: 22.8- %
same,CD8 T Cells: % Positive for CD69,"[4]; Poor Responders, D 15, median",14.9 (IQR: 10.5- %
same,NK Cells: % Positive for CD69,"[4]; Poor Responders, D 15, median",22.7 (IQR: 13.2- %
same,Antibody Response,[5]; patient 402,2
same,Antibody Response,[5]; patient 404,0
same,Antibody Response,[5]; patient 405,2
same,Antibody Response,[5]; patient 406,1
same,Antibody Response,[5]; patient 411,0
same,Antibody Response,[5]; patient 416,0
same,Antibody Response,[5]; patient 417,2
same,Antibody Response,[5]; patient 421,2
same,Antibody Response,[5]; patient 422,2
same,Antibody Response,[5]; patient 423,1
same,Antibody Response,[5]; patient 425,1
same,Antibody Response,[5]; patient 429,1
same,patients with clear increases in anti-tumor bands,[5]; [6],14 patients
same,patients with minimal changes in tumor bands,[5]; [6],14 patients
same,patients with no changes in number or intensity of anti-tumor immunoblot bands,[5]; [6],11 patients
